# pIC50: −log10 of the molar value.
# Biological target: T1, human Cot/Tpl2 kinase (Homo sapiens, UniProt P41279)
# T1 construct: human Cot/Tpl2 kinase construct encoding residues 30-398; 6His (N); made in house; host or cells: Sf9 insect cells, baculovirus system (BD Biosciences)
# Assay: Tpl2/Cot kinase assay: GST-MEK1 phosphorylation detected by ELISA (DELFIA Eu)
# Type: biochemical
# Details: 0.4 nM Tpl2, 35 nM GST-MEK1, 50 uM ATP, 1 h at 30° C.
# Procedure, shortened: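 Substrate phosphorylation (GST-MEK1 Ser217/221) quantified by DELFIA europium ELISA, yielding IC50 values. Reaction: 1 h at 30° C, pH 7.2 MOPS buffer, 50 uM ATP, 35 nM GST-MEK1, 0.4 nM monomeric His-Tpl2 purified from Sf9 cells, compounds at 1% final DMSO; stopped with EDTA.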
# T1 sequence (P41279 30-398): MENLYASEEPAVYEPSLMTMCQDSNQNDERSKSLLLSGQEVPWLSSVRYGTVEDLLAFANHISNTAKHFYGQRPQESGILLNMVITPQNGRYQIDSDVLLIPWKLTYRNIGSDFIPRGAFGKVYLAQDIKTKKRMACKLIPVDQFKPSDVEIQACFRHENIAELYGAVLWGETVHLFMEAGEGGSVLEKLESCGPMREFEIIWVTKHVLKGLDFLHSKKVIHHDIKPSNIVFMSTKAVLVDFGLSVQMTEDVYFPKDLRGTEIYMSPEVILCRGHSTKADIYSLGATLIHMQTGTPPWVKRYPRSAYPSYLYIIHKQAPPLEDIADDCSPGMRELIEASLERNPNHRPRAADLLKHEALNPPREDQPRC
row,Structure (SMILES),pIC50
1,"N#Cc1cnc2c(Cl)cc(NCc3cc4n(n3)CCC4)cc2c1Nc1ccc(F)c(Cl)c1 [Example 189, 8-chloro-4-(3-chloro-4-fluorophenylamino)-6-((5,6-dihydro-4H-pyrrolo[1,2-b]pyrazol-2-yl)methylamino)quinoline-3-carbonitrile]",7.00
2,"N#Cc1cnc2ccc(NC(=O)c3cccnc3)cc2c1Nc1ccc(F)c(Cl)c1 [Example 2, N-[4-(3-Chloro-4-fluoro-phenylamino)-3-cyano-quinolin-6-yl]-nicotinamide]",4.62
3,"Cc1nn(C)c(N2CCOCC2)c1CNc1ccc2ncc(C#N)c(Nc3ccc(F)c(Cl)c3)c2c1 [Example 38, 4-(3-Chloro-4-fluoro-phenylamino)-6-[(1,3-dimethyl-5-morpholin-4-yl-1H-pyrazol-4-ylmethyl)-amino]-quinoline-3-carbonitrile]",5.59
4,"N#Cc1cnc2c(Br)cc(NCc3cn(C4CCNCC4)nn3)cc2c1Nc1ccc(F)c(Cl)c1 [Example 316, 8-bromo-4-[(3-chloro-4-fluorophenyl)amino]-6-{[(1-piperidin-4-yl-1H-1,2,3-triazol-4-yl)methyl]amino}quinoline-3-carbonitrile]",8.00
5,"N#Cc1cnc2ccc(NCc3ccccc3)cc2c1Nc1ccc(N2CCOCC2)cc1 [Example 66, 6-(benzylamino)-4-(4-morpholinophenylamino)quinoline-3-carbonitrile]",< 4.40
6,"N#Cc1cnc2c(Br)cc(NCc3nn[nH]c3-c3ccc(F)cc3)cc2c1Nc1ccc(F)c(Cl)c1 [Example 170, 8-bromo-4-[(3-chloro-4-fluorophenyl)amino]-6-({[5-(4-fluorophenyl)-1H-1,2,3-triazol-4-yl]methyl}amino)quinoline-3-carbonitrile]",6.17
7,"CCc1nc[nH]c1CNc1cc(Br)c2ncc(C#N)c(Nc3ccc(F)c(Cl)c3)c2c1 [Example 112, 8-bromo-4-(3-chloro-4-fluorophenylamino)-6-((4-ethyl-1H-imidazol-5-yl)methylamino)quinoline-3-carbonitrile]",8.46
8,"N#Cc1cnc2ccc(NCc3nccn3CC(=O)NC3CCNCC3)cc2c1Nc1ccc(F)c(Cl)c1 [Example 143, 2-(2-((4-(3-chloro-4-fluorophenylamino)-3-cyanoquinolin-6-ylamino)methyl)-1H-imidazol-1-yl)-N-(piperidin-4-yl)acetamide]",6.12
9,"Cc1c(CNc2ccc3ncc(C#N)c(Nc4ccc(F)c(Cl)c4)c3c2)ncn1CCN1CCOCC1 [Example 129, 4-(3-chloro-4-fluorophenylamino)-6-((5-methyl-1-(2-morpholinoethyl)-1H-imidazol-4-yl)methylamino)quinoline-3-carbonitrile]",7.85
10,"Cc1ncn(CCN2CCOCC2)c1CNc1ccc2ncc(C#N)c(Nc3ccc(F)c(Cl)c3)c2c1 [Example 130, 4-(3-chloro-4-fluorophenylamino)-6-((4-methyl-1-(2-morpholinoethyl)-1H-imidazol-5-yl)methylamino)quinoline-3-carbonitrile]",6.59
11,"N#Cc1cnc2c(Br)cc(NCc3nn[nH]c3CO)cc2c1Nc1ccc(F)c(Cl)c1 [Example 294, 8-Bromo-4-(3-chloro-4-fluoro-phenylamino)-6-[(5-hydroxymethyl-1H-[1,2,3]triazol-4-ylmethyl)-amino]-quinoline-3-carbonitrile]",6.30
12,"N#Cc1cnc2c(Br)cc(NCc3cn(CCN4CCCCCC4)nn3)cc2c1Nc1ccc(F)c(Cl)c1 [Example 307, 6-{[1-(2-Azepan-1-yl-ethyl)-1H-[1,2,3]triazol-4-ylmethyl]-amino}-8-bromo-4-(3-chloro-4-fluoro-phenylamino)-quinoline-3-carbonitrile]",7.21
13,"CC(O)Cc1nn[nH]c1CNc1cc(Br)c2ncc(C#N)c(Nc3ccc(F)c(Cl)c3)c2c1 (stereo not shown) [Example 318, 8-bromo-4-(3-chloro-4-fluorophenylamino)-6-((5-(2-hydroxypropyl)-3H-1,2,3-triazol-4-yl)methylamino)quinoline-3-carbonitrile]",8.24
14,"CC(C)(C)OC(=O)N1CCCC(CNc2ccc3ncc(C#N)c(Nc4ccc(F)c(Cl)c4)c3c2)C1 (stereo not shown) [Example 63, 3-{[4-(3-Chloro-4-fluoro-phenylamino)-3-cyano-quinolin-6-ylamino]-methyl}-piperidine-1-carboxylic acid tert-butyl ester]",< 4.40
15,"CN(C)C(=O)Cn1ccnc1CNc1ccc2ncc(C#N)c(Nc3ccc(F)c(Cl)c3)c2c1 [Example 140, 2-(2-((4-(3-chloro-4-fluorophenylamino)-3-cyanoquinolin-6-ylamino)methyl)-1H-imidazol-1-yl)-N, N-dimethylacetamide]",7.70
16,"N#Cc1cnc2ccc(NCc3ccccc3)cc2c1Nc1ccc(F)c(Cl)c1 [Example 36, 6-Benzylamino-4-(3-chloro-4-fluoro-phenylamino)-quinoline-3-carbonitrile]",6.20
17,"CN(C)C(=O)c1cc(NCc2ccco2)cc2c(Nc3ccc(F)c(Cl)c3)c(C#N)cnc12 [Example 84, 4-(3-chloro-4-fluorophenylamino)-3-cyano-6-(furan-2-ylmethylamino)-N,N-dimethylquinoline-8-carboxamide]",< 4.40
18,"N#Cc1cnc2c(Cl)cc(NCCN=[N+]=[N-])cc2c1Nc1ccc(F)c(Cl)c1 [Example 210, 6-[(2-azidoethyl)amino]-8-chloro-4-[(3-chloro-4-fluorophenyl)amino]quinoline-3-carbonitrile]",5.72
19,"CS(=O)(=O)c1cc(NCc2cnc[nH]2)cc2c(Nc3ccc(F)c(Cl)c3)c(C#N)cnc12 [Example 286, 4-[(3-chloro-4-fluorophenyl)amino]-6-[(1H-imidazol-5-ylmethyl)amino]-8-(methylsulfonyl)quinoline-3-carbonitrile]",6.72
20,"COCC(=O)NCCn1cc(CNc2cc(Br)c3ncc(C#N)c(Nc4ccc(F)c(Cl)c4)c3c2)nn1 [Example 218, N-(2-(4-((8-bromo-4-(3-chloro-4-fluorophenylamino)-3-cyanoquinolin-6-ylamino)methyl)-1H-1,2,3-triazol-1-yl)ethyl)-2-methoxyacetamide]",7.49

# Same assay, conditions: Table 2; Tpl2/Cot kinase, GST-MEK1 substrate, 50 uM ATP
row,Structure (SMILES),pIC50
1,COCCn1cc(CNc2cc(Br)c3ncc(C#N)c(Nc4ccc(F)c(Cl)c4)c3c2)nn1 [Example 522],7.74
2,N#Cc1cnc2c(Br)cc(NCc3cn(Cc4ccncc4)nn3)cc2c1Nc1ccc(F)c(Cl)c1 [Example 495],8.32
3,CN1CCCC1CCn1cnc(CNc2cc(Br)c3ncc(C#N)c(Nc4ccc(F)c(Cl)c4)c3c2)c1 (stereo not shown) [Example 548],7.47
4,Cn1cc(CNc2ccc3ncc(C#N)c(Nc4ccc(F)c(F)c4)c3c2)ccc1=O [Example 343],5.98
5,CN(C)CCC(c1cccnc1)n1cc(CNc2cc(Br)c3ncc(C#N)c(Nc4ccc(F)c(Cl)c4)c3c2)nn1 (stereo not shown) [Example 587],8.17
6,CN(C)C(=O)c1cc(NCc2cccnc2)cc2c(Nc3cccc(Cl)c3)c(C#N)cnc12 [Example 376],6.40
7,CC(C)N1CCC(Cn2cc(CNc3cc(Br)c4ncc(C#N)c(Nc5ccc(F)c(Cl)c5)c4c3)nn2)CC1 [Example 567],7.54
8,N#Cc1cnc2c(Br)cc(N)cc2c1Nc1cccc(Cl)c1 [Example 365],6.41
9,Cn1nnc(CCNc2cc(Cl)c3ncc(C#N)c(Nc4ccc(F)c(Cl)c4)c3c2)n1 [Example 467],5.92
10,Cn1ccnc1CNc1cc(Cl)c2ncc(C#N)c(Nc3ccc(F)c(Cl)c3)c2c1 [Example 426],8.49
11,CC(O)c1cc(NCc2cnc[nH]2)cc2c(Nc3ccc(F)c(Cl)c3)c(C#N)cnc12 (stereo not shown) [Example 463],6.59

# Same assay, conditions: Tpl2/Cot kinase, GST-MEK1 substrate, 50 uM ATP
row,Structure (SMILES),pIC50
1,CCNC(=O)N1CCC[C@@H]1Cn1cc(CNc2cc(Cl)c3ncc(C#N)c(Nc4ccc(F)c(Cl)c4)c3c2)nn1 [Example 899],9.22
2,N#Cc1cnc2c(Cl)cc(NCC(=O)NCc3cccnc3)cc2c1Nc1ccc(F)c(Cl)c1 [Example 771],6.70
3,N#Cc1cnc2c(Cl)cc(NCc3cn(CCOC(N)=O)nn3)cc2c1Nc1ccc(F)c(Cl)c1 [Example 784],8.23
4,CN1CCC(CCn2cc(CNc3cc(Br)c4ncc(C#N)c(Nc5ccc(F)c(Cl)c5)c4c3)nn2)CC1 [Example 695],7.36
5,CCN1CCC(Nc2ccc3ncc(C#N)c(Nc4ccc(F)c(Cl)c4)c3c2)C(C)C1 (stereo not shown) [Example 659],< 4.40
6,N#Cc1cnc2c(Cl)cc(NCc3cn(CCCNC4CCCC4)nn3)cc2c1Nc1ccc(F)c(Cl)c1 [Example 914],7.28
7,N#Cc1cnc2c(Cl)cc(NCC(=O)NCc3ccccn3)cc2c1Nc1ccc(F)c(Cl)c1 [Example 780],6.48
8,CS(=O)(=O)NCCCn1cc(CNc2cc(Cl)c3ncc(C#N)c(Nc4ccc(F)c(Cl)c4)c3c2)nn1 [Example 905],8.55
9,CC(=O)Nc1ccc(-n2cc(CNc3cc(Cl)c4ncc(C#N)c(Nc5ccc(F)c(Cl)c5)c4c3)nn2)cc1 [Example 802],7.46
10,CC(=O)N1CCC[C@H]1Cn1cc(CNc2cc(Cl)c3ncc(C#N)c(Nc4ccc(F)c(Cl)c4)c3c2)nn1 [Example 901],9.00
11,CN1CCCC1CCn1cc(CN(Cc2cn(CCC3CCCN3C)nn2)c2cc(Br)c3ncc(C#N)c(Nc4ccc(F)c(Cl)c4)c3c2)nn1 (stereo not shown) [Example 823],6.07

# Same assay, conditions: Tpl2/Cot kinase, GST-MEK1 substrate, 50 uM ATP, 1 h at 30° C.; Table 2
row,Structure (SMILES),pIC50
1,N#Cc1cnc2c(Cl)cc(NCc3cncc(C4(O)CCOCC4)c3)cc2c1Nc1ccc(F)c(Cl)c1 [Example 1048],6.35
2,CN(C)CCn1cc(CNc2cc(Cl)c3ncc(C#N)c(NC4CCC4)c3c2)nn1 [Example 956],6.14
3,N#Cc1cnc2c(Cl)cc(NCc3cn(CCN4CCCCC4)nn3)cc2c1NCC(F)(F)F [Example 985],5.85
4,N#Cc1cnc2ccc(NCc3cn(CCN4CCCCCC4)nn3)cc2c1NC1CCCCC1 [Example 970],6.29
